Measurements published in patent US12528792B2, “Sulfonamide compounds and the use thereof in the treatment of cancer” (TROBIO THERAPEUTICS PTY LTD, priority 2019, dated 2026).

How the values were obtained:
Format in all cases: cell-based
[1] = test system: SK-N-SH neuroblastoma cells; experiment: Cytotoxicity assay, MTS viability; conditions: Homo sapiens, 72 hours
Experimental: The ability of compounds of the disclosure to inhibit the proliferation of SK—N—SH neuroblastoma cells was assessed. The SK—N—SH cell line was maintained as a monolayer in Dulbeccos Modified Eagles medium (DMEM) supplemented with 10% foetal bovine serum (FBS) and grown at 37° C. in a humidified atmosphere with 5% CO2. For the cytotoxicity assay, SK—N—SH cells were seeded at a density of 2×10^3 cells per well in 96-well plates. The cells were treated with serial dilutions of the test compounds (1:2 starting concentration 100 µM) and viability measured after 72 hours using a standard MTS assay. Cell viability was normalised to control (vehicle alone) and dose response curves and EC50 values (Table 3) were determined using Graph Pad Prism 6.

A549 (NSCLC) cells = experiment: Anti-proliferative activity, Cell-Titre luminescent viability assay; conditions: Homo sapiens, 72 h exposure, Cell-Titre luminescent reagent
Experimental: (§1) The ability of compounds of the disclosure to inhibit the proliferation of cancer cells representative of non-small cell lung cancer and ovarian cancer (Table 1), and pancreatic cancer, colorectal cancer and prostate cancer (Table 2) was assessed. Briefly, a predetermined number of cells as calculated from cell growth assays for each of the cell lines employed were seeded into their respective culture medium (using ATCC culture parameters—http://www.atcc.org) and cultured for 24 h at 37° C. and 5% CO2 in 96-well culture plates. Once attached, each cell line was then exposed to various concentrations of each respective analogue (100, 30, 10, 3, 1 and 0.3 µM or 30, 10, 3, 1, 0.3 and 0.1 μM), cultured for a further 72 h and exposed to Cell-Titre luminescent reagent (100 μL/well) for a further 30 min. Luminescence was captured using an EnVision multilabel reader and the data for each analogue concentration compared against no treatment control. Cell viability was normalised to control (vehicle alone) and dose response curves, and half maximal effective concentration (EC50) values were determined using Graph Pad Prism 6 (nonlinear regression sigmoidal dose-response variable slope).

A2780 (ovarian) cells = experiment: as above; conditions: Homo sapiens, 72 h exposure, Cell-Titre luminescent reagent
Experimental: as §1

Compound	IC50 (A549 (NSCLC) cells)	IC50 (A2780 (ovarian) cells)	IC50 [1]
O=C(Nc1ccc(Cl)c(F)c1)c1ccn(S(=O)(=O)c2ccc3[nH]ccc3c2)c1 [Compound 69, 1-((1H-indol-5-yl)sulfonyl)-N-(4-chloro-3-fluorophenyl)-1H-pyrrole-3-carboxamide]	13.3 µM	8.66 µM	17.3 µM
CCC(C)c1ccc(NC(=O)C2CCN(S(=O)(=O)c3ccn(C)c3)CC2)cc1 (stereo not drawn) [Compound 28, N-(4-(sec-butyl)phenyl)-1-((1-methyl-1H-pyrrol-3-yl)sulfonyl)piperidine-4-carboxamide]	13 µM	24.7 µM	11.7 µM
O=C(Nc1cccc(C(F)(F)F)c1)C1CCN(S(=O)(=O)c2ccc3[nH]ccc3c2)CC1 [Compound 63, 1-((1H-indol-5-yl)sulfonyl)-N-(3-(trifluoromethyl)phenyl) piperidine-4-carboxamide]	12.6 µM	10.9 µM	13.5 µM
CCC(C)c1ccc(NC(=O)C2CCN(S(=O)(=O)c3ccc4cc[nH]c4n3)CC2)cc1 (stereo not drawn) [Compound 65, 1-((1H-pyrrolo[2,3-b]pyridin-6-yl)sulfonyl)-N-(4-(sec-butyl)phenyl) piperidine-4-carboxamide]	16.2 µM	22.3 µM	12.5 µM
O=C(Nc1ccc(C(F)(F)F)cc1)N1CCN(S(=O)(=O)c2ccc3c(c2)CCN3)CC1 [Compound 14, 4-(indolin-5-ylsulfonyl)-N-(4-(trifluoromethyl)phenyl)piperazine-1-carboxamide]	33.1 µM	24.8 µM	26.6 µM
Cc1ccc(NC(=O)N2CCN(S(=O)(=O)c3ccc4[nH]ccc4c3)CC2)cc1O [Compound 16, 4-((1H-indol-5-yl)sulfonyl)-N-(3-hydroxy-4-methylphenyl)piperazine-1-carboxamide]	17.3 µM	28.8 µM	31.5 µM
CC(C)(C)c1ccc(NC(=O)c2ccn(S(=O)(=O)c3ccc4[nH]ccc4c3)c2)cc1 [Compound 100, 1-((1H-indol-5-yl)sulfonyl)-N-(4-(tert-butyl)phenyl)-1H-pyrrole-3-carboxamide]	11 µM	8.87 µM	7.51 µM
O=C(Nc1ccc(C(F)(F)F)cc1)c1ccn(S(=O)(=O)c2ccc3[nH]ccc3c2)n1 [Compound 78, 1-((1H-indol-5-yl)sulfonyl)-N-(4-(trifluoromethyl)phenyl)-1H-pyrazole-3-carboxamide]	18.4 µM	5.44 µM	21.6 µM
O=C(Nc1ccc(Cl)c(Cl)c1)c1ccn(S(=O)(=O)c2ccc3[nH]ccc3c2)c1 [Compound 71, 1-((1H-indol-5-yl)sulfonyl)-N-(3,4-dichlorophenyl)-1H-pyrrole-3-carboxamide]	9.28 µM	7.49 µM	8.9 µM
CCCc1ccc(NC(=O)c2ccn(S(=O)(=O)c3ccc4[nH]ccc4c3)c2)cc1 [Compound 96, 1-((1H-indol-5-yl)sulfonyl)-N-(4-propylphenyl)-1H-pyrrole-3-carboxamide]	12.8 µM	8.85 µM	12.2 µM
Cc1ccc(NC(=O)c2ccn(S(=O)(=O)c3ccc4c(c3)CCN4)c2)cc1O [Compound 22, N-(3-hydroxy-4-methylphenyl)-1-(indolin-5-ylsulfonyl)-1H-pyrrole-3-carboxamide]	> 100 µM	> 100 µM	57.6 µM
CC(C)(C)c1ccc(S(=O)(=O)n2ccc(C(=O)Nc3ccc(F)cc3)c2)cc1 [Compound 92, 1-((4-(tert-butyl)phenyl)sulfonyl)-N-(4-fluorophenyl)-1H-pyrrole-3-carboxamide]	17.3 µM	4 µM	16.6 µM
N#Cc1ccc(NC(=O)c2ccn(S(=O)(=O)c3ccc4[nH]ccc4c3)c2)cc1 [Compound 67, 1-((1H-indol-5-yl)sulfonyl)-N-(4-cyanophenyl)-1H-pyrrole-3-carboxamide]	14.1 µM	6.23 µM	15.7 µM
O=C(Nc1ccc(F)c(F)c1)c1ccn(S(=O)(=O)c2ccc3[nH]ccc3c2)c1 [Compound 68, 1-((1H-indol-5-yl)sulfonyl)-N-(3,4-difluorophenyl)-1H-pyrrole-3-carboxamide]	16.6 µM	8.53 µM	19.1 µM
Cn1cc(S(=O)(=O)N2CCN(C(=O)Nc3ccc(C(F)(F)F)cc3)CC2)cc1C(N)=O [Compound 11, 4-((5-carbamoyl-1-methyl-1H-pyrrol-3-yl)sulfonyl)-N-(4-(trifluoromethyl)phenyl)piperazine-1-carboxamide]	> 100 µM	48.4 µM	> 100 µM
Cc1ccc(NC(=O)c2ccn(S(=O)(=O)c3ccc4[nH]ccc4c3)c2)cc1O [Compound 25, 1-((1H-indol-5-yl)sulfonyl)-N-(3-hydroxy-4-methylphenyl)-1H-pyrrole-3-carboxamide]	> 100 µM	> 100 µM	30 µM
O=C(Nc1ccc(C(F)(F)F)cc1)C1CCN(S(=O)(=O)c2ccc3c(c2)CCN3)CC1 [Compound 5, 1-(indolin-5-ylsulfonyl)-N-(4-(trifluoromethyl)phenyl)piperidine-4-carboxamide]	39.6 µM	14.8 µM	27.4 µM
Cc1ccc(NC(=O)C2CCN(S(=O)(=O)c3ccc4[nH]ccc4c3)CC2)cc1O [Compound 7, 1-((1H-indol-5-yl)sulfonyl)-N-(3-hydroxy-4-methylphenyl)piperidine-4-carboxamide]	44.4 µM	41.4 µM	32.6 µM
O=C(Nc1ccc(C(F)(F)F)cc1)c1ccn(S(=O)(=O)c2ccc3c(c2)CCN3)c1 [Compound 23, 1-(indolin-5-ylsulfonyl)-N-(4-(trifluoromethyl)phenyl)-1H-pyrrole-3-carboxamide]	11.6 µM	5.3 µM	12.8 µM
CCC(C)c1ccc(NC(=O)N2CCN(S(=O)(=O)c3ccc4[nH]ccc4c3)CC2)cc1 (stereo not drawn) [Compound 15, 4-((1H-indol-5-yl)sulfonyl)-N-(4-(sec-butyl)phenyl)piperazine-1-carboxamide]	25.8 µM	22.3 µM	14.9 µM

These reach a lower IC50 (A549 (NSCLC) cells). Values come first.

IC50 (A549 (NSCLC) cells)	IC50 (A2780 (ovarian) cells)	Compound	IC50 [1]
8.7 µM	2.5 µM	Cc1cccc(NC(=O)c2ccn(S(=O)(=O)c3ccc4[nH]ccc4c3)c2)c1 [Compound 44, 1-((1H-indol-5-yl)sulfonyl)-N-(m-tolyl)-1H-pyrrole-3-carboxamide]	15.2 µM
7.22 µM	8.37 µM	CC(C)(C)c1ccc(NC(=O)c2ccn(S(=O)(=O)c3ccc4[nH]ccc4c3)n2)cc1 [Compound 113, 1-((1H-indol-5-yl)sulfonyl)-N-(4-(tert-butyl)phenyl)-1H-pyrazole-3-carboxamide]	9.41 µM
6.58 µM	8.11 µM	CC(C)c1ccc(NC(=O)c2ccn(S(=O)(=O)c3ccc4[nH]ccc4c3)n2)cc1 [Compound 107, 1-((1H-indol-5-yl)sulfonyl)-N-(4-isopropylphenyl)-1H-pyrazole-3-carboxamide]	6.22 µM
6.3 µM	4.1 µM	O=C(Nc1cccc(F)c1)c1ccn(S(=O)(=O)c2ccc3[nH]ccc3c2)c1 [Compound 49, 1-((1H-indol-5-yl)sulfonyl)-N-(3-fluorophenyl)-1H-pyrrole-3-carboxamide]	15.4 µM
6.2 µM	4.6 µM	CCC(C)c1ccc(NC(=O)c2ccn(S(=O)(=O)c3ccc4[nH]c(C)c(C)c4c3)c2)cc1 (stereo not drawn) [Compound 59, N-(4-(sec-butyl)phenyl)-1-((2,3-dimethyl-1H-indol-5-yl)sulfonyl)-1H-pyrrole-3-carboxamide]	10.3 µM
5.4 µM	6.7 µM	CC(C)c1cccc(NC(=O)c2ccn(S(=O)(=O)c3ccc4[nH]ccc4c3)c2)c1 [Compound 38, 1-((1H-indol-5-yl)sulfonyl)-N-(3-isopropylphenyl)-1H-pyrrole-3-carboxamide]	12 µM
5.2 µM	2.2 µM	Cc1ccccc1NC(=O)c1ccn(S(=O)(=O)c2ccc3[nH]ccc3c2)c1 [Compound 45, 1-((1H-indol-5-yl)sulfonyl)-N-(o-tolyl)-1H-pyrrole-3-carboxamide]	27 µM
3.6 µM	2.2 µM	CCC(C)c1cccc(NC(=O)c2ccn(S(=O)(=O)c3ccc4[nH]ccc4c3)c2)c1 (stereo not drawn) [Compound 35, 1-((1H-indol-5-yl)sulfonyl)-N-(3-(sec-butyl)phenyl)-1H-pyrrole-3-carboxamide]	6.81 µM
3.2 µM	5.4 µM	CCC(C)c1ccc(CCC2CCN(S(=O)(=O)c3cc(C(N)=O)n(C)c3)CC2)cc1 (stereo not drawn) [Compound 34, 4-((4-(4-(sec-butyl)phenethyl)piperidin-1-yl)sulfonyl)-1-methyl-1H-pyrrole-2-carboxamide]	46.2 µM
2.3 µM	1.6 µM	O=C(Nc1ccccc1C(F)(F)F)c1ccn(S(=O)(=O)c2ccc3[nH]ccc3c2)c1 [Compound 47, 1-((1H-indol-5-yl)sulfonyl)-N-(2-(trifluoromethyl)phenyl)-1H-pyrrole-3-carboxamide]	27.8 µM
